Source: US7192617B2, “Whitening agent, skin preparation for external use and cosmetic” (priority 2002, dated 2007)

Assay: Test for measuring DPPH radical scavenging activity
Details: 30 minutes of reaction at 30° C., absorbance at 517 nm; in terms of the evaporation residue
Procedure: 800 μl of a 500 μM DPPH solution was added to the test tube, stirred, and reacted at 30° C. Exactly after 30 minutes of reaction, the absorbance of the sample at 517 nm was measured, using distilled water as a standard. From the measured absorbances, the DPPH radical scavenging ratio was calculated, and the 50% radical scavenging activity (IC50) was obtained. The same procedure was performed with α-tocopherol, which is a known antioxidative component, for measuring the DPPH radical scavenging activity. […] From the measured values, the DPPH radical scavenging ratios were calculated.

Cc1c(C)c2c(c(C)c1O)CC[C@@](C)(CCC[C@H](C)CCC[C@H](C)CCCC(C)C)O2 [α-tocopherol]
50% DPPH radical scavenging activity (IC50): 0.13 mg/g
